Reference: ChEMBL document CHEMBL1150567, “Three new phenolic compounds from a manipulated plant cell culture, Mirabilis jalapa” (J Nat Prod, 2001)
In brackets after ≈: the same amount, converted by molar mass.

Tests used:
[1] = test system: Candida albicans; experiment: Antifungal activity against MDR knockout Candida albicans DSY1024 after 24 hrs by XTT assay; format: functional, organism-based; conditions: DSY1024, 24 h
[2] = test system: Candida albicans; experiment: Antifungal activity against wild type Candida albicans SC5314 after 24 hrs by XTT assay; format: functional, organism-based; conditions: SC5314, 24 h

Structure (SMILES)	IC50 [1]	IC50 [2]
COc1cc2c(c(O)c1C)C(=O)[C@@]1(O)c3cccc(O)c3O[C@@H](OC)[C@@H]1O2	> 200 µg/mL	> 200 µg/mL
COc1ccccc1-c1coc2cc(O)c(C)c(O)c2c1=O	25 µg/mL (≈ 83.8 µM)	16 µg/mL (≈ 53.6 µM)
COc1cc2oc3c(c(=O)c2c(O)c1C)-c1cccc(O)c1OC3O (stereo unspecified) [9-O-METHYL-4-HYDROXYBOERAVINONE B]	48 µg/mL (≈ 140 µM)	> 200 µg/mL
C[C@@H]1[C@H](O)[C@@H](C)/C=C/C=C/C=C/C=C/C=C/C=C/C=C/[C@H](O[C@@H]2O[C@H](C)[C@@H](O)[C@H](N)[C@@H]2O)C[C@@H]2O[C@](O)(C[C@@H](O)C[C@@H](O)[C@H](O)CC[C@@H](O)C[C@@H](O)CC(=O)O[C@H]1C)C[C@H](O)[C@H]2C(=O)O [AMPHOTERICIN B]	0.19 µg/mL (≈ 0.206 µM)	0.15 µg/mL (≈ 0.162 µM)
COc1ccc(-c2coc3cc(O)cc(O)c3c2=O)cc1 [BIOCHANIN]	> 100 µg/mL	> 100 µg/mL
O=c1c(-c2ccc(O)cc2)coc2cc(O)ccc12 [DAIDZEIN]	> 100 µg/mL	> 100 µg/mL
OC(Cn1cncn1)(Cn1cncn1)c1ccc(F)cc1F [FLUCONAZOLE]	6.7 µg/mL (≈ 21.9 µM)	0.18 µg/mL (≈ 0.588 µM)
O=c1c(-c2ccc(O)cc2)coc2cc(O)cc(O)c12 [GENISTEIN]	> 100 µg/mL	> 100 µg/mL
